The record followed here is patent US8299049B2, “Compositions comprising an extract of Tiarella polyphylla or compounds isolated therefrom for preventing and treating cancer diseases” (Korea Institute of Bioscience and Biotechnology, priority 2007, dated 2012).

Each structure is given as a SMILES string.

For test [1], the system named is Akt, p15INK4B, p16INK4A, caspase-3 in TM4SF5-mediated tumor tissue. Briefly: Western blot and immunohistochemical staining of tumor tissue from nude mice. The format is in vivo. As to the method: (§1) Whole cell lysates from cells under diverse experimental conditions were prepared, as described in the literature (Lee, S. Y. et al., Focal adhesion and actin organization by a cross-talk of TM4SF5 with integrin α2 are regulated by serum treatment, Exp Cell Res, 312, pp. 2983-99, 2006). For example, cells were subjected to electroporation (950 μF, 250 V) with a control GFP, wild-type focal adhesion kinase (FAK), paxillin, p130Cas cDNA. One day after electroporation, cells were treated with TA (20 μM) for the indicated periods. Cells cultured normally or treated with TA at different concentrations for the indicated periods were harvested using RIPA buffer. Control or tumor tissues from nude mice were frozen immediately after surgery using liquid N2. Tissues in the liquid N2 was homogenized using a mortar and pestle, and extracted using 0.1% SDS containing RIPA buffer. Standard Western blots of lysates were performed by using antibody against phospho-Y^397, Y^407, Y^577, Y^861, Y^925 FAK (BioSource International, Inc., Camarillo, Calif.), phospho-Y^416Src, c-Src, p15^INK4B, p16^INK4A (Santa Cruz Biotech., Santa Cruz, Calif.), FAK, p130Cas, paxillin, pY^118paxillin, active caspase-3 (BD Transduct. Lab., San Jose, Calif.), α-tubulin (Sigma, St Louis, Mo.), phopsho-S^473, or T^308Akt, Akt, phospho-Erk1/2, Erk1/2 (Cell Signaling Tech., Danvers, Mass.), and TM4SF5 (homemade).
4-5 week old female nude mice (BALB/cAnNCrjBgi-nu) were purchased from Orient. Co. Ltd. (Seongnam, Korea). The mice were housed in a specific pathogen-free room under controlled temperature and humidity. All animal procedures were performed in accordance with the procedures in Seoul National University Laboratory Animal Maintenance Manual and with IRB agreement. Mice aged 5-6 weeks were injected subcutaneously with 5×10^6 viable SNU449Cp or SNU449T16 cells. Tumor volumes were measured with a caliper and calculated using the following Mathematical Formula 1. When the tumor volume reached 200 mm^3, mice were injected intraperitoneally with 3 mg/kg or 30 mg/kg (body weight) of tiarellic acid (TA) every other day for 30 days. (Width×Length^2)/2 [Mathematical Formula 1]
To evaluate whether tiarellic acid (TA) administration might interfere with TM4SF5 mediated tumor formation in nude mice, the following experiment was performed as described in the literature (Lee S-A et al., TM4SF5-mediated transmodulation between cytosolic p27Kip1 and Rho GTPases and epithelial-mesenchymal transition cause loss of contact inhibition, Cancer Cell, 2007).
(In general: Immunoblotting shows a protein as a band on a membrane.)

In the next test the test system is TM4SF5-expressing cells. Briefly: Immunofluorescence of focal adhesions and actin, TM4SF5-expressing cells. The format is cell-based. As to the method: Cells were treated with DMSO or 20 μM TA for 24 hrs. Then, the cells were plated on 10 μg/ml fibronectin-precoated coverslips and incubated for 2 hrs in the presence of DMSO or 20 μM TA. Subsequently, immunofluorescence staining was performed using pY^397 FAK, pY^118 paxillin, and actin, as described in the literature (Lee, S. Y. et al., Focal adhesion and actin organization by a cross-talk of TM4SF5 with integrin α2 are regulated by serum treatment, Exp Cell Res, 312, pp. 2983-99, 2006). Mounted samples were visualized by a fluorescent microscope (BX51, Olympus, Japan).

Test [2] has as its system SNU449T16 cells introduced with GFP control, wild-type FAK, paxillin or p130Cas cDNA. Briefly: TA-mediated effects under overexpression of focal adhesion molecules. The format is cell-based. As to the method: as §1
To evaluate whether overexpression of focal adhesion molecules such as focal adhesion kinase (FAK), paxillin, and p130Cas would block the effects of TA treatment, the following procedure was performed as described in the literature (Lee, S. Y. et al., Focal adhesion and actin organization by a cross-talk of TM4SF5 with integrin α2 are regulated by serum treatment, Exp Cell Res, 312, pp. 2983-99, 2006).
To explore this, each cDNA was introduced into SNU449T16 cells via electroporation. After 1 day, the cells were treated with 20 μM TA for 24 hrs to obtain lysates. […] Therefore, the TA-mediated effects on TM4SF5-expressing cells could be overcome to a certain degree by overexpression of focal adhesion molecules. On the other hand, changes in Erk1/2 activation were not observed under each experimental condition, thereby understanding TA-mediated effects on signal transduction in this experimental system.

Test [3] relates to focal adhesion molecules in cells that express endogenous TM4SF5. The experiment in a line: Focal adhesion molecule activation in cells endogenously expressing TM4SF5. To be noted: FIG. 12. The format is cell-based. As for the experimental part:
as §1

Test [4] relates to TM4SF5 null SNU449Cp cells. The experiment in a line: Inhibitory effect on cell growth, TM4SF5-null control cells. The format is cell-based. To be noted: 20 μM, 3 days. As to the method:
After virus infection, pooled stable clones (control SNU449Cp and TM4SF5-expressing SNU449Tp cell clones) and single cell-driven stable clones (TM4SF5-expressing SNU449T16) were prepared by infecting SNU449 hepatocytes (Korean Cell Bank, Seoul, Korea) with retrovirus for empty pLNCX or pLNCX with TM4SF5. Parental and control cells (Cp) were maintained in RPMI-1640/10% FBS/0.25 μg/ml gentamycin (Calbiochem, San Diego, Calif.) without or with 200 μg/ml G418 (A.G. Scientific Inc., San Diego, Calif.), respectively, at 37° C. and 5% CO2. Cells endogenously expressing TM4SF5 or cells endogenously expressing no TM4SF5 (Korean Cell Bank) were maintained in either DMEM-H or RPMI-1640 media with 10% FBS (JBI Inc., Daegu, Korea).

Test [5] deals with TM4SF5-null cells (SNU449P, SNU449Cp). The experiment in a line: Degree of adhesion on fibronectin-precoated dishes, TM4SF5-null cells. The format is cell-based. To be noted: 20 μM TA 24 hr, reseeded on fibronectin 1 hr. As for the experimental part: Thus, it could be thought that TA treatment induces anoikis of TM4SF5-expressing cells. To examine whether TA treatment affected cellular adhesion, the following procedure was performed prior to analysis of TA-meditated cell death, as described in the literature (Yang, X. et al., Palmitoylation supports assembly and function of integrin-tetraspanin complexes, J Cell Biol, 167, pp. 1231-40, 2004).
Cells were treated with 20 μM TA for 24 hr, and the floating cells were collected and reseeded on fibronectin-precoated dishes for 1 hr before determination of the degree of adhesion.

In test [6] the test system is SNU449Cp cells expressing no TM4SF5. The experiment in a line: Number of floating cells, SNU449Cp. The format is cell-based. The following applies: TA versus DMSO. An excerpt:
FIG. 17 is a graph showing the number of floating SNU449Cp and SNU449Tp cells, after tiarellic acid (TA) treatment for various time periods;

Setting [7] is: Western blot, TA administration.

Regarding `C=C(C)C1CC[C@]2(C)CC[C@]3(C(=O)O)C(CCC4[C@@]5(C)CC[C@H](O)[C@@](C)(CO)C5CC[C@]43C)C12` (stereo partly shown) [tiarellic acid (TA), 3,23-dihydroxy-20(29)-lupen-27-oic acid], in test [1] (setting [7]), the “Akt activation in tumor tissue” value was “decreased”, the “caspase-3 activation in tumor tissue” value is recorded as “enhanced” and the “p15INK4B or p16INK4A CKI levels in tumor tissue” value is given as “increased”. For the same compound, in test [1] (tumor tissue from TA-treated mice), the “immunohistochemical staining for active caspase-3” value is listed as “positive”. In addition, the focal adhesions result in the test with TM4SF5-expressing cells (20 μM TA) is on record as “lost”. For the same compound, the “immunostaining for pY397FAK or pY118paxillin” value in the test with TM4SF5-expressing cells (FIG. 13) was “disassembly of focal adhesion molecules was observed”. The “association between integrin α5 and pY397FAK” value with TM4SF5-expressing cells (FIG. 14) is listed as “dissociation”. Also, in the test on TM4SF5-expressing cells (FIG. 15), the “actin organization and stress fibers” value is given as “abnormal actin organization with insignificant stress fibers”. In addition, in test [2] (SNU449T16 overexpressing focal adhesion molecules), the “TA-mediated increases in the sub-G1 population under overexpression” value is recorded as “blocked”. Also, in test [2] (SNU449T16 with control plasmid (GFP), 20 μM TA), the “focal adhesion molecule and caspase-3 activity” value was “time-dependent inactivation of focal adhesion molecules and activation of caspase-3”. Further, in test [2] (SNU449T16 with wild-type FAK, paxillin, or p130Cas, 20 μM TA), the “TA-mediated effects under overexpression” value is “certain degrees of blocking”. Also, in test [2] (each experimental condition), the “changes in Erk1/2 activation” value is “not observed”. Moreover, the “inhibitory effects on focal adhesion molecule activation” value in test [3] is listed as “observed”. Also, in test [4], the “inhibitory effect on cell growth” value is “not observed”. In addition, the adhesion entry in test [5] was “not affected”. For the same compound, the “number of floating cells” value in test [6] is “did not affect”.
